Reference: ChEMBL document CHEMBL5505961, “RIPK1 inhibitors: A key to unlocking the potential of necroptosis in drug development” (Eur J Med Chem, 2024)
Each block holds one molecule with its values, some of them ahead of it.

Columns and labels:
[1] = system: HT-29; assay: cells; conditions: Homo sapiens, HT-29, 24 h
[2] = system: Jurkat; assay: cells; conditions: Homo sapiens, 48 h
[3] = system: Jurkat; assay: cells; conditions: Homo sapiens, 24 h
[4] = system: HT-29; assay: cells; conditions: Homo sapiens, HT-29, 24 h; remark: listed apart in the source
[5] = system: L929; assay: cells; conditions: Mus musculus, L929, 24 h
[6] = target: T1, Receptor-interacting serine/threonine-protein kinase 1 (Homo sapiens, UniProt Q13546)
T1 sequence (Q13546 whole entry): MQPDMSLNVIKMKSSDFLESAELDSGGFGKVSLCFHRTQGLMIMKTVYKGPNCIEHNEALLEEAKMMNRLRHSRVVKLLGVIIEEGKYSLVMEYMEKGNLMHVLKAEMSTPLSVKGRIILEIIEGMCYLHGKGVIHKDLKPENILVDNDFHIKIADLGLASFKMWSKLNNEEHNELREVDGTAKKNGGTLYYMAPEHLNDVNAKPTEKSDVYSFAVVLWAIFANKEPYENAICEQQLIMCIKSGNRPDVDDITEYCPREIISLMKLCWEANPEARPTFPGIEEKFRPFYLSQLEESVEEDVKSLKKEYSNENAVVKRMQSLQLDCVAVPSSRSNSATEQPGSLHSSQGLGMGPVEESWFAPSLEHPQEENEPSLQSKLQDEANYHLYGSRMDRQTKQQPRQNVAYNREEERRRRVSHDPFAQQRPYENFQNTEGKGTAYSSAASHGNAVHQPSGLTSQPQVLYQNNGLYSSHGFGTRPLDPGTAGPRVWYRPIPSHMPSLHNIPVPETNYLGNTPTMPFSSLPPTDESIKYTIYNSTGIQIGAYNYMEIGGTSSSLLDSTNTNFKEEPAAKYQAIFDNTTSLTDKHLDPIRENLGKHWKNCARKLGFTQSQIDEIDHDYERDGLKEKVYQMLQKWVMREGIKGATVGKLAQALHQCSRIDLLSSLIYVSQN

[7] = target: T1, Receptor-interacting serine/threonine-protein kinase 1; remark: listed apart in the source
[8] = in vitro; conditions: mouse, liver microsomes
[9] = system: HT-29; assay: cells; conditions: Homo sapiens, HT-29, 1 h
[10] = cells; conditions: Homo sapiens, HT-29, 1 h
[11] = system: Jurkat; assay: cells; conditions: Homo sapiens
[12] = system: L929; assay: cells; conditions: Mus musculus
[13] = target: T1, Receptor-interacting serine/threonine-protein kinase 1; remark: listed apart in the source
[14] = target: T1, Receptor-interacting serine/threonine-protein kinase 1; remark: listed apart in the source
[15] = target: T2, Eukaryotic translation initiation factor 2-alpha kinase 3 (Homo sapiens, UniProt Q9NZJ5)
T2 sequence (Q9NZJ5 whole entry): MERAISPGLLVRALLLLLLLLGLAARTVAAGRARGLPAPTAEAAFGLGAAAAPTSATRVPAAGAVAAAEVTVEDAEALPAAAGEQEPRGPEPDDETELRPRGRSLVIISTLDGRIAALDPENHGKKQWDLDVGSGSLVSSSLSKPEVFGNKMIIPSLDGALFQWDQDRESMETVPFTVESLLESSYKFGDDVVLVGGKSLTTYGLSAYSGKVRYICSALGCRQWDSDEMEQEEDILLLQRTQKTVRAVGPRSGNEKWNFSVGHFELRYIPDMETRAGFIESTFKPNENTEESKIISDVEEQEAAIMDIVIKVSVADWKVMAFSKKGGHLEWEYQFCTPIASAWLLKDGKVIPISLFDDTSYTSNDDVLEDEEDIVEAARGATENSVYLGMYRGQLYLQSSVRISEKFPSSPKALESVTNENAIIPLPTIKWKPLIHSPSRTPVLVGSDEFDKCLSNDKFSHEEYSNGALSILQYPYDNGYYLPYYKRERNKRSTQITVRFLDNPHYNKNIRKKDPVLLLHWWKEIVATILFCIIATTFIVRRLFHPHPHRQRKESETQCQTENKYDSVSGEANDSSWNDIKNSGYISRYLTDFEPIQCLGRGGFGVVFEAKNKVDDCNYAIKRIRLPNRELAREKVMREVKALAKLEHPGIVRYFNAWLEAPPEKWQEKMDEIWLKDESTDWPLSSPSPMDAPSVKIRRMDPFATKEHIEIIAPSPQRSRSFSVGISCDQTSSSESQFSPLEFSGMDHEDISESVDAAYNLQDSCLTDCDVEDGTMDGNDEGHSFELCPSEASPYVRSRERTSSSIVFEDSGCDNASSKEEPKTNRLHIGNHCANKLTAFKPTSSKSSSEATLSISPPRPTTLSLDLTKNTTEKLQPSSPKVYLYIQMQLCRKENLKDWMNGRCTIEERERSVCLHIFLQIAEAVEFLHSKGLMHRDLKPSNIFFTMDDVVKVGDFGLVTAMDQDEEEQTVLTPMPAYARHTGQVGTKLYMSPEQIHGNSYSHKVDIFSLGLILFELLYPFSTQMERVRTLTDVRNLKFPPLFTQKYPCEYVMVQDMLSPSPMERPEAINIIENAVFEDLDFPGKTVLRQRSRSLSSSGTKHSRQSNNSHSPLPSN

[16] = target: T3, Aurora kinase A (Homo sapiens, UniProt O14965)
T3 sequence (O14965 whole entry): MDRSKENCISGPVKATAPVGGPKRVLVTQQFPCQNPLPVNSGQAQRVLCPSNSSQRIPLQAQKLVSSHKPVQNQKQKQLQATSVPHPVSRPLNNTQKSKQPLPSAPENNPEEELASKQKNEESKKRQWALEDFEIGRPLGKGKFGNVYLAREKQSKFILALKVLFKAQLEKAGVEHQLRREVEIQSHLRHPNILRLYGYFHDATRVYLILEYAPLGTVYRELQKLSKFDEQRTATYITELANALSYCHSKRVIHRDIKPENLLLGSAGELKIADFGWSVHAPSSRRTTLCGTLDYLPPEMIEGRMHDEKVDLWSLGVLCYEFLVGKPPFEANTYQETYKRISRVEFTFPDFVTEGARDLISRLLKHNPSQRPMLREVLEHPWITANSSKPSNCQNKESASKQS

[17] = target: T1, Receptor-interacting serine/threonine-protein kinase 1; remark: listed apart in the source
[18] = system: HT-29; assay: cells; conditions: Homo sapiens, HT-29, 48 h
[19] = system: U-937; assay: cells; conditions: Homo sapiens, U-937, 48 h
[20] = system: MEF; assay: cells; conditions: Mus musculus, 48 h
[21] = in vitro; conditions: mouse, L929 cells
[22] = clinical; conditions: human
[23] = target: T1, Receptor-interacting serine/threonine-protein kinase 1; assay: biochemical
[24] = target: T4, Receptor-interacting serine/threonine-protein kinase 3 (Homo sapiens, UniProt Q9Y572)
[25] = system: HT-22; assay: cells; conditions: Mus musculus, HT-22, 24 h
[26] = system: MEF; assay: cells; conditions: Mus musculus, 24 h
[27] = target: T1, Receptor-interacting serine/threonine-protein kinase 1; remark: listed apart in the source
[28] = target: T2, Eukaryotic translation initiation factor 2-alpha kinase 3; remark: listed apart in the source
[29] = system: Jurkat; assay: Antiproliferative activity against human Jurkat cells assessed as reduction in cell viability by MTT assay; format: functional, cell-based
[30] = target: Indoleamine 2,3-dioxygenase 1 (Homo sapiens, UniProt P14902); assay: Inhibition of IDO (unknown origin)
[31] = system: HT-29; assay: cells; conditions: Homo sapiens
[32] = target: T1, Receptor-interacting serine/threonine-protein kinase 1; remark: listed apart in the source
[33] = target: Receptor-interacting serine/threonine-protein kinase 2 (Homo sapiens, UniProt O43353)
[34] = system: HT-29; assay: cells; conditions: Homo sapiens; remark: listed apart in the source
[35] = system: TOV21G; assay: cells; conditions: Homo sapiens
[36] = system: U-937; assay: cells; conditions: Homo sapiens
[37] = target: T1, Receptor-interacting serine/threonine-protein kinase 1; remark: listed apart in the source
[38] = target: T4, Receptor-interacting serine/threonine-protein kinase 3; remark: listed apart in the source
[39] = target: T5, Regulator of chromosome condensation (Homo sapiens, UniProt P18754)
T5 sequence (P18754 whole entry): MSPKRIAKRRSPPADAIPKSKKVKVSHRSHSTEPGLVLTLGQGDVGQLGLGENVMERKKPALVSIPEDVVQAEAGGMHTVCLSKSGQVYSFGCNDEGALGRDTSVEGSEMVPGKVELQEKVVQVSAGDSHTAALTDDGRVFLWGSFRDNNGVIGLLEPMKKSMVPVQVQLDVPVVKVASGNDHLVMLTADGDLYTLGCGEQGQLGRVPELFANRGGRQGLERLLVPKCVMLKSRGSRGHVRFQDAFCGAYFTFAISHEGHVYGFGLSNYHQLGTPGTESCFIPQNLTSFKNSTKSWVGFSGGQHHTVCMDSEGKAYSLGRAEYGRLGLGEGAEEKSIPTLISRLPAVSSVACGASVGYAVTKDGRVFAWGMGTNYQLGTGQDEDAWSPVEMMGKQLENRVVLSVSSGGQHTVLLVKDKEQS

T4 sequence (Q9Y572 whole entry): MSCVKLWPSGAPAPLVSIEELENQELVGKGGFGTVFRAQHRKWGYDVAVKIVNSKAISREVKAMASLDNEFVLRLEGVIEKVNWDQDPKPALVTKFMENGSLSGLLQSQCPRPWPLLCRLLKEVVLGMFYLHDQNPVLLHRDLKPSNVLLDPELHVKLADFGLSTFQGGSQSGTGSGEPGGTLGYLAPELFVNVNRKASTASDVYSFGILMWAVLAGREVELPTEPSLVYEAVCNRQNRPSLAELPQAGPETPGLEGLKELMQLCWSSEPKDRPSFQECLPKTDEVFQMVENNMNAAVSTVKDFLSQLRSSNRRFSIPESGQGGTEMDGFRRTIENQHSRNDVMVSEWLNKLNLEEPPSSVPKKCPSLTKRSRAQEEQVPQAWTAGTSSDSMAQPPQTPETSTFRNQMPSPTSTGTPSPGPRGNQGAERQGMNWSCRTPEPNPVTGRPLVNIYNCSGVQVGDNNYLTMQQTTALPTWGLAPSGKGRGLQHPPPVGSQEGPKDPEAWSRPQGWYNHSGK
Chain of Indoleamine 2,3-dioxygenase 1 (P14902 whole entry): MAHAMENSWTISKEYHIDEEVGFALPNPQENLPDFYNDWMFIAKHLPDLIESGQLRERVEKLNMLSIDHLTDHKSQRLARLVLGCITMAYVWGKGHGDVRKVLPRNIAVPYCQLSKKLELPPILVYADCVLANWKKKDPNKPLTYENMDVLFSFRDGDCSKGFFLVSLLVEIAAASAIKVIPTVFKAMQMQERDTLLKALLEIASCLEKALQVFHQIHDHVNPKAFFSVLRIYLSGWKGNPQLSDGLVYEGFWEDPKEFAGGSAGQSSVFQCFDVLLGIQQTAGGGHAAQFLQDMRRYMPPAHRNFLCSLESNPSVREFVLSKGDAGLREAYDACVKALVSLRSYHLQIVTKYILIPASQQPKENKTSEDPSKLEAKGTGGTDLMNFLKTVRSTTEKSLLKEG
Chain of Receptor-interacting serine/threonine-protein kinase 2 (O43353 whole entry): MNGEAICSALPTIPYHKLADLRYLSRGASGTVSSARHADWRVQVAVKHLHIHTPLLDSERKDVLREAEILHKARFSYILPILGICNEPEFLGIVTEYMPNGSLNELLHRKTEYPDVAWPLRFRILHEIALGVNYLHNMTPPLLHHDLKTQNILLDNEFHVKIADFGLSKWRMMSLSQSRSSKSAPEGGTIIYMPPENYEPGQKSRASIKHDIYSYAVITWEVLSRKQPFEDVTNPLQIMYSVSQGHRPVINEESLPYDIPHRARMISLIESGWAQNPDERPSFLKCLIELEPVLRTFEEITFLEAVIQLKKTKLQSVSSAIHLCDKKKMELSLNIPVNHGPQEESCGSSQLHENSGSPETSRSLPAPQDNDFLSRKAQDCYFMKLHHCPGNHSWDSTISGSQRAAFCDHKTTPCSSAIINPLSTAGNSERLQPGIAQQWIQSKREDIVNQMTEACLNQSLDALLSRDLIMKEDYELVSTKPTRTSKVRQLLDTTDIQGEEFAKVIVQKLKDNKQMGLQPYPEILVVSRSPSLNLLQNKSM

SMILES: CC(=O)NC1=NC2C=CC(c3cnc4ccn(C(=O)OC5CCCCC5)c4c3)=CC2S1 (configuration not stated)
- EC50 [4]: 58 nM
- EC50 [5]: 26 nM

SMILES: O=C(NC1CCOCC1)c1nsc2ncc(-c3ccc4nc(NC(=O)C5CC5)sc4c3)cc12
- IC50 [6]: 5.8 nM
- Kd [7]: 13 nM
- EC50 [4]: 5 nM
- EC50 [5]: 1.9 nM
- half-life [8]: > 1.5 h

SMILES: COc1cc(/C=C/C(=O)N2CCC=CC2=O)cc(OC)c1OC [PIPLARTINE]
- EC50 [9]: 540 nM
- EC50 [10]: 6410 nM

SMILES: CCCS(=O)(=O)Nc1ccc(F)c(C(=O)c2c[nH]c3ncc(-c4ccc(Cl)cc4)cc23)c1F [VEMURAFENIB]
- EC50 [12]: 3750 nM

SMILES: O=C(Nc1cn2cc(-c3cnc4c(c3)N(C(=O)OC3CCOCC3)CC4)ccc2n1)C1CC1
- Kd [7]: 8.7 nM

SMILES: O=C(c1ccc(-c2cc3cccnc3[nH]2)cc1)N1CCOCC1
- IC50 [23]: 88000 nM

SMILES: CC(C)(C)c1cc(NC(=O)Nc2ccc(-c3cn4c(n3)sc3cc(OCCN5CCOCC5)ccc34)cc2)no1 [QUIZARTINIB]
- EC50 [25]: 194 nM
- EC50 [26]: 66500 nM

SMILES: Cn1cc(-c2ccc3c(c2)CCN3C(=O)Cc2ccc(C(F)(F)F)cn2)c2c(N)ncnc21
- IC50 [27]: 2.9 nM
- IC50 [28]: > 5000 nM

SMILES: Cc1ccc(F)c(NC(=O)Nc2ccc(-c3cccc4[nH]nc(N)c34)cc2)c1 [LINIFANIB]
- IC50 [6]: 95 nM

SMILES: Cc1ccc(C(=O)Nc2ccc(CN3CCN(C)CC3)c(C(F)(F)F)c2)cc1C#Cc1cnc2cccnn12 [PONATINIB]
- EC50 [11]: 89 nM
- EC50 [31]: 50 nM

SMILES: COc1cc(CCc2cc(NC(=O)c3ccc(N4C[C@@H](C)N[C@@H](C)C4)cc3)n[nH]2)cc(OC)c1 [FEXAGRATINIB]
- IC50 [32]: 12 nM
- IC50 [33]: 259 nM
- IC50 [24]: 10000 nM
- EC50 [34]: 19 nM
- EC50 [35]: 52 nM
- EC50 [36]: 31 nM
- EC50 [31]: 19 nM

SMILES: CNC(=O)c1cc(Oc2ccc(NC(=O)Nc3cc(C(C)(C)C)nn3-c3ccc4ncccc4c3)c(F)c2)ccn1 [REBASTINIB]
- IC50 [37]: 6.49 nM
- IC50 [38]: 18.6 nM
- EC50 [39]: 18.7 nM

SMILES: Cc1cc(Nc2cc(N3CCN(C)CC3)nc(Nc3ccc(NC(=O)C4CC4)cc3)n2)n[nH]1
- IC50 [17]: 170 nM

Second part, the molecule after the results:

- EC50 [1]: 1050 nM
SMILES: O=[N+]([O-])c1ccn(Cc2ccc(Cl)cc2Cl)n1

- IC50 [2]: 740 nM
SMILES: Cc1ccc(C2CC(=O)NC(SCC(=O)Nc3nccs3)=C2C#N)cc1 (configuration not stated)

- IC50 [3]: 210 nM
SMILES: CN1C(=O)NC(Cc2c[nH]c3ccccc23)C1=O (configuration not stated)

- EC50 [11]: 254 nM
SMILES: Cc1ccc(Nc2nccc(N(C)c3ccc4c(C)n(C)nc4c3)n2)cc1S(N)(=O)=O [PAZOPANIB]

- IC50 [13]: 110 nM
SMILES: O=C(c1cc2c(-c3ccc(F)cc3)cccc2s1)N1CCOCC1

- IC50 [14]: 69.1 nM
- IC50 [15]: 9.7 nM
SMILES: Cc1cccc(CC(=O)N2CCc3cc(-c4cn(C)c5ncnc(N)c45)ccc32)n1

- IC50 [16]: 430 nM
- IC50 [17]: 160 nM
SMILES: Cc1cc(Nc2cc(N3CCNCC3)nc(Nc3ccc(NC(=O)C4CC4)cc3)n2)n[nH]1

- IC50 [14]: 18.2 nM
- IC50 [15]: 3.8 nM
SMILES: Cn1cc(-c2ccc3c(c2)CCN3C(=O)Cc2cccc(C(F)(F)F)n2)c2c(N)ncnc21

- IC50 [14]: 18.2 nM
- EC50 [18]: 1200 nM
- EC50 [19]: 1330 nM
- EC50 [20]: 950 nM
- EC50 at 48 h [21]: 760 nM
SMILES: CC(=O)Nc1nc2ccc(-c3cnc(Cl)c(NC(=O)Cc4ccccc4)c3)cc2s1

- IC50 [3]: 180 nM
SMILES: CN1C(=O)C(Cc2c[nH]c3c(Cl)cccc23)NC1=S (configuration not stated)

- EC50 [3]: 400 nM
- half-life [22]: 0.542 h
SMILES: Cc1nnsc1C(=O)N[C@H](C)c1c(F)cccc1Cl

- IC50 [24]: 366 nM
- IC50 [11]: 185 nM
SMILES: CN1C(=O)[C@@H](Cc2c[nH]c3c(Cl)c(F)ccc23)N(C=O)C1=O

- IC50 [11]: 2380 nM
SMILES: C[C@@H](Oc1cc(-c2cnn(C3CCNCC3)c2)cnc1N)c1c(Cl)ccc(F)c1Cl [CRIZOTINIB]

- EC50 [29]: 540 nM
- IC50 [30]: 39100 nM
SMILES: CN1C(=O)C(Cc2c[nH]c3ccccc23)NC1=S (configuration not stated) [NECROSTATIN]

- EC50 [10]: 1700 nM
SMILES: CCCCNc1nc2ccc([N+](=O)[O-])cc2[nH]1

- IC50 [6]: 250 nM
SMILES: O=C(NCCc1ccccc1Cl)c1cn(-c2ccccc2)nn1

- half-life [22]: 1 h
SMILES: CN1C(=O)N[C@@H](Cc2c[nH]c3c(Cl)cccc23)C1=O
